Results as given in ChEMBL document CHEMBL1201862, “PubChem BioAssay data set” (2004).
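Results reflect a 48-hour exposure of cells in 96-well plates to compound at five concentrations. Here, GI50 denotes the concentration required for 50% inhibition of growth.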 Active and inactive are the calls of the source. Rule as the data show it: active = GI50 up to about 1.1 µM and inactive = higher.

Key:
Assay in all cases: DTP human tumour cell line panel, 48 h
HOP-92 = tested on: HOP-92
SR = tested on: SR
SW-620 = tested on: SW-620
MCF7 = tested on: MCF7
CCRF-CEM = tested on: CCRF-CEM
KM12 = tested on: KM12
UO-31 = tested on: UO-31
Malme-3M = tested on: Malme-3M
MDA-MB-435 = tested on: MDA-MB-435
LOX IMVI = tested on: LOX IMVI
DU-145 = tested on: DU-145
A549 = tested on: A549
SK-OV-3 = tested on: SK-OV-3
786-0 = tested on: 786-0
COLO 205 = tested on: COLO 205
MDA-MB-231 = tested on: MDA-MB-231
OVCAR-5 = tested on: OVCAR-5
MOLT-4 = tested on: MOLT-4
IGROV-1 = tested on: IGROV-1
UACC-257 = tested on: UACC-257
ACHN = tested on: ACHN
OVCAR-4 = tested on: OVCAR-4
OVCAR-3 = tested on: OVCAR-3
HCC 2998 = tested on: HCC 2998
UACC-62 = tested on: UACC-62
BT-549 = tested on: BT-549
HCT-116 = tested on: HCT-116
HCT-15 = tested on: HCT-15
SF-295 = tested on: SF-295
RPMI-8226 = tested on: RPMI-8226
NCI-H23 = tested on: NCI-H23
SNB-19 = tested on: SNB-19
SK-MEL-28 = tested on: SK-MEL-28
SF-268 = tested on: SF-268
PC-3 = tested on: PC-3
NCI/ADR-RES = tested on: NCI/ADR-RES
CAKI-1 = tested on: CAKI-1
HL-60 = tested on: HL-60
EKVX = tested on: EKVX
Hs-578T = tested on: Hs-578T
HOP-62 = tested on: HOP-62
U-251 = tested on: U-251
NCI-H460 = tested on: NCI-H460
RXF 393 = tested on: RXF 393
SNB-75 = tested on: SNB-75
MDA-N = tested on: MDA-N
SF-539 = tested on: SF-539
T47D = tested on: T47D
M14 = tested on: M14
K562 = tested on: K562
OVCAR-8 = tested on: OVCAR-8
A498 = tested on: A498
SK-MEL-5 = tested on: SK-MEL-5
HT-29 = tested on: HT-29
SK-MEL-2 = tested on: SK-MEL-2
TK-10 = tested on: TK-10
SN12C = tested on: SN12C

Structure (SMILES): Cc1ccc(O)c(C2=CC3=NNC(=O)C3C(c3cccc(Br)c3)C2)c1 (configuration not stated)
- GI50 (HOP-92): 16.6 µM (inactive)
- GI50 (SR): 21.2 µM (inactive)
- GI50 (SW-620): 27.7 µM (inactive)
- GI50 (MCF7): 11.4 µM (inactive)
- GI50 (CCRF-CEM): 25.1 µM (inactive)
- GI50 (KM12): 14.9 µM (inactive)
- GI50 (UO-31): 57.3 µM (inactive)
- GI50 (Malme-3M): 25.9 µM (inactive)
- GI50 (MDA-MB-435): 23.9 µM (inactive)
- GI50 (LOX IMVI): 14 µM (inactive)
- GI50 (DU-145): 29.2 µM (inactive)
- GI50 (A549): 23 µM (inactive)
- GI50 (SK-OV-3): 14.6 µM (inactive)
- GI50 (786-0): 29.5 µM (inactive)
- GI50 (COLO 205): 12.3 µM (inactive)
- GI50 (MDA-MB-231): 20 µM (inactive)
- GI50 (OVCAR-5): 21.8 µM (inactive)
- GI50 (MOLT-4): 30.9 µM (inactive)
- GI50 (IGROV-1): 23.1 µM (inactive)
- GI50 (UACC-257): 45.2 µM (inactive)
- GI50 (ACHN): 24 µM (inactive)
- GI50 (OVCAR-4): 8.04 µM (inactive)
- GI50 (OVCAR-3): 22.3 µM (inactive)
- GI50 (HCC 2998): 14.7 µM (inactive)
- GI50 (UACC-62): 19.6 µM (inactive)
- GI50 (BT-549): 23.1 µM (inactive)
- GI50 (HCT-116): 21 µM (inactive)
- GI50 (HCT-15): 20.9 µM
- GI50 (SF-295): 18.8 µM (inactive)
- GI50 (RPMI-8226): 22.1 µM (inactive)
- GI50 (NCI-H23): 23.7 µM (inactive)
- GI50 (SNB-19): 34.2 µM (inactive)
- GI50 (SK-MEL-28): 20.6 µM (inactive)
- GI50 (SF-268): 23 µM (inactive)
- GI50 (PC-3): 34.3 µM (inactive)
- GI50 (NCI/ADR-RES): 34.6 µM (inactive)
- GI50 (CAKI-1): 23 µM (inactive)
- GI50 (HL-60): 25.4 µM (inactive)
- GI50 (EKVX): 25.9 µM (inactive)
- GI50 (Hs-578T): 27.1 µM (inactive)
- GI50 (HOP-62): 55 µM (inactive)
- GI50 (U-251): 21.7 µM (inactive)
- GI50 (NCI-H460): 22.4 µM (inactive)
- GI50 (RXF 393): 14.2 µM (inactive)
- GI50 (SNB-75): 22.6 µM (inactive)
- GI50 (MDA-N): 23.7 µM (inactive)
- GI50 (SF-539): 29.4 µM (inactive)
- GI50 (T47D): 20.5 µM (inactive)
- GI50 (M14): 36.9 µM (inactive)
- GI50 (K562): 25.8 µM (inactive)
- GI50 (OVCAR-8): 20.8 µM (inactive)
- GI50 (A498): 42.9 µM (inactive)
- GI50 (SK-MEL-5): 23.1 µM (inactive)
- GI50 (HT-29): 23.8 µM (inactive)
- GI50 (SK-MEL-2): 27.4 µM (inactive)
- GI50 (TK-10): 18.6 µM (inactive)
- GI50 (SN12C): 19.9 µM (inactive)
